Measured values as given in US20260285850A1, “SUBSTITUTED OXAZOLIDINONES AND IMIDAZOLINONES AS HERBICIDES” (FMC CORPORATION, priority 2023, published 2026).

Tests used:
Assay type in all cases: in vivo
[1] = test system: barnyardgrass (Echinochloa crus-galli); assay: Test A preemergence soil spray, visual injury rating 0-100; conditions: 10 days, 0 = no effect, 100 = complete control
Summary of the method: (§1)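 Preemergence directed soil spray or postemergence spray (2-10 cm, 1-2 leaf); loam/sand mix; compound in non-phytotoxic solvent + surfactant. Greenhouse, 10 d. Visual injury vs untreated, 0 = none, 100 = complete control.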

kochia (Bassia scoparia) [2] = assay: as above; conditions: 10 days, 0 = no effect, 100 = complete control
Summary of the method: as §1

[3] = test system: green foxtail (Setaria viridis); assay: as above; conditions: 10 days, 0 = no effect, 100 = complete control
Summary of the method: as §1

corn (Zea mays) [4] = assay: as above; conditions: 10 days, 0 = no effect, 100 = complete control
Summary of the method: as §1

[5] = test system: ryegrass, Italian (italian ryegrass, Lolium multiflorum); assay: as above; conditions: 10 days, 0 = no effect, 100 = complete control
Summary of the method: as §1

[6] = test system: palmer (palmer amaranth, palmer pigweed, Amaranthus palmeri); assay: as above; conditions: 10 days, 0 = no effect, 100 = complete control
Summary of the method: as §1

[7] = test system: blackgrass (Alopecurus myosuroides); assay: as above; conditions: 10 days, 0 = no effect, 100 = complete control
Summary of the method: as §1

[8] = test system: ragweed (common ragweed, Ambrosia artemisiifolia); assay: as above; conditions: 10 days, 0 = no effect, 100 = complete control
Summary of the method: as §1

[9] = test system: wheat (Triticum aestivum); assay: as above; conditions: 10 days, 0 = no effect, 100 = complete control
Summary of the method: as §1

[10] = test system: oat, wild (wild oat, Avena fatua); assay: as above; conditions: 10 days, 0 = no effect, 100 = complete control
Summary of the method: as §1

soybean (Glycine max) [11] = assay: as above; conditions: 10 days, 0 = no effect, 100 = complete control
Summary of the method: as §1

[12] = test system: ducksalad (Heteranthera limosa); assay: Test B flooded paddy test, visual plant response rating 0-100; conditions: 250 g ai/ha, Flood, applied to paddy water, evaluated after 13 days
Summary of the method: (§2)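 Treatment occurs at the 2-leaf stage by adding compound to floodwater standing 3 cm above the soil, a level kept for the whole test. Plants stay in the greenhouse 13 days before visual comparison with controls.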

[13] = test system: sedge, umbrella (small-flower umbrella sedge, Cyperus difformis); assay: as above; conditions: 250 g ai/ha, Flood, applied to paddy water, evaluated after 13 days
Summary of the method: as §2

rice (Oryza sativa) = assay: as above; conditions: 250 g ai/ha, Flood, applied to paddy water, evaluated after 13 days
Summary of the method: as §2

[14] = test system: barnyardgrass (Echinochloa crusgalli); assay: as above; conditions: 250 g ai/ha, Flood, applied to paddy water, evaluated after 13 days
Summary of the method: as §2

[15] = test system: barnyardgrass (Echinochloa crus-galli); assay: Test A postemergence application, visual injury rating 0-100; conditions: 10 days
Text: (§3) Seeds of plant species selected from barnyardgrass (Echinochloa crus-galli), blackgrass (Alopecurus myosuroides), corn (Zea mays), foxtail, giant (giant foxtail, Setaria faberi), green foxtail (Setaria viridis), goosegrass (Eleusine indica), kochia (Bassia scoparia), oat, wild (wild oat, Avena fatua), palmer (palmer amaranth, palmer pigweed, Amaranthus palmeri), ragweed (common ragweed, Ambrosia artemisiifolia), ryegrass, Italian (italian ryegrass, Lolium multiflorum), soybean (Glycine max) and wheat (Triticum aestivum) were planted into a blend of loam soil and sand and treated preemergence with a directed soil spray using test chemicals formulated in a non-phytotoxic solvent mixture which included a surfactant.
(§4) At the same time, plants selected from these crops and weed species and also galium (catchweed bedstraw, Galium aparine) and horseweed (Erigeron canadensis) were planted in pots containing the same blend of loam soil and sand and treated with postemergence applications of test chemicals formulated in the same manner. Plants ranged in height from 2 to 10 cm and were in the one- to two-leaf stage for the postemergence treatment. Treated plants and untreated controls were maintained in a greenhouse for 10 days, after which time all treated plants were compared to untreated controls and visually evaluated for injury. Plant response ratings, summarized in Table A, are based on a 0 to 100 scale where 0 is no effect and 100 is complete control. A dash (-) response means no test result.

kochia (Bassia scoparia) [16] = assay: as above; conditions: 10 days
Text: as §3, §4

[17] = test system: green foxtail (Setaria viridis); assay: as above; conditions: 10 days
Text: as §3, §4

corn (Zea mays) [18] = assay: as above; conditions: 10 days
Text: as §3, §4

[19] = test system: ryegrass, Italian (italian ryegrass, Lolium multiflorum); assay: as above; conditions: 10 days
Text: as §3, §4

[20] = test system: palmer (palmer amaranth, palmer pigweed, Amaranthus palmeri); assay: as above; conditions: 10 days
Text: as §3, §4

[21] = test system: blackgrass (Alopecurus myosuroides); assay: as above; conditions: 10 days
Text: as §3, §4

[22] = test system: horseweed (Erigeron canadensis); assay: as above; conditions: 10 days
Text: as §3, §4

[23] = test system: ragweed (common ragweed, Ambrosia artemisiifolia); assay: as above; conditions: 10 days
Text: as §3, §4

[24] = test system: wheat (Triticum aestivum); assay: as above; conditions: 10 days
Text: as §3, §4

[25] = test system: oat, wild (wild oat, Avena fatua); assay: as above; conditions: 10 days
Text: as §3, §4

soybean (Glycine max) [26] = assay: as above; conditions: 10 days
Text: as §3, §4

[27] = 31 g ai/ha, postemergence, 0 = no effect, 100 = complete control
[28] = Postemergence, 125 g ai/ha, 0 is no effect, 100 is complete control

SMILES: CC1(C(=O)NC2CC=C(C(=O)O)C2)CN(c2cc(F)cc(F)c2)C(=O)O1 [Compound 38, (4S)-4-[[[3-(3,5-difluorophenyl)-5-methyl-2-oxo-5-oxazolidinyl]carbonyl]amino]-1-cyclopentene-1-carboxylate acid]
- Barnyardgrass plant response rating (0-100) ([1]; 31 g ai/ha): 0
- Barnyardgrass plant response rating (0 to 100 scale) ([1]; 125 g ai/ha): 40
- Kochia plant response rating (0-100) (kochia (Bassia scoparia) [2]; 31 g ai/ha): 0
- Kochia plant response rating (0 to 100 scale) (kochia (Bassia scoparia) [2]; 125 g ai/ha): 20
- Foxtail, Green plant response rating (0-100) ([3]; 31 g ai/ha): 0
- Foxtail, Green plant response rating (0 to 100 scale) ([3]; 125 g ai/ha): 20
- Corn plant response rating (0-100) (corn (Zea mays) [4]; 31 g ai/ha): 0
- Corn plant response rating (0 to 100 scale) (corn (Zea mays) [4]; 125 g ai/ha): 90
- Ryegrass, Italian plant response rating (0-100) ([5]; 31 g ai/ha): 0
- Ryegrass, Italian plant response rating (0 to 100 scale) ([5]; 125 g ai/ha): 90
- Amaranth, Palmer plant response rating (0-100) ([6]; 31 g ai/ha): 0
- Amaranth, Palmer plant response rating (0 to 100 scale) ([6]; 125 g ai/ha): 70
- Blackgrass plant response rating (0-100) ([7]; 31 g ai/ha): 0
- Blackgrass plant response rating (0 to 100 scale) ([7]; 125 g ai/ha): 50
- Ragweed plant response rating (0-100) ([8]; 31 g ai/ha): 0
- Ragweed plant response rating (0 to 100 scale) ([8]; 125 g ai/ha): 0
- Wheat plant response rating (0-100) ([9]; 31 g ai/ha): 40
- Wheat plant response rating (0 to 100 scale) ([9]; 125 g ai/ha): 90
- Oat, Wild plant response rating (0-100) ([10]; 31 g ai/ha): 0
- Oat, Wild plant response rating (0 to 100 scale) ([10]; 125 g ai/ha): 60
- Soybean plant response rating (0-100) (soybean (Glycine max) [11]; 31 g ai/ha): 10
- Soybean plant response rating (0 to 100 scale) (soybean (Glycine max) [11]; 125 g ai/ha): 80
- Plant response rating, Ducksalad (0 to 100 scale, 0 is no effect and 100 is complete control) [12]: 55
- Plant response rating, Sedge, Umbrella (0 to 100 scale, 0 is no effect and 100 is complete control) [13]: 95
- Plant response rating, Rice (0 to 100 scale, 0 is no effect and 100 is complete control) (rice (Oryza sativa)): 70
- Plant response rating, Barnyardgrass (0 to 100 scale, 0 is no effect and 100 is complete control) [14]: 55
- Barnyardgrass plant response rating (0-100) [15, 27]: 90
- Barnyardgrass plant response rating (0 to 100 scale) [15, 28]: 100
- Kochia plant response rating (0-100) (kochia (Bassia scoparia) [16]; [27]): 80
- Kochia plant response rating (0 to 100 scale) (kochia (Bassia scoparia) [16]; [28]): 80
- Foxtail, Green plant response rating (0-100) [17, 27]: 90
- Foxtail, Green plant response rating (0 to 100 scale) [17, 28]: 90
- Corn plant response rating (0-100) (corn (Zea mays) [18]; [27]): 90
- Corn plant response rating (0 to 100 scale) (corn (Zea mays) [18]; [28]): 100
- Ryegrass, Italian plant response rating (0-100) [19, 27]: 70
- Ryegrass, Italian plant response rating (0 to 100 scale) [19, 28]: 90
- Amaranth, Palmer plant response rating (0-100) [20, 27]: 40
- Amaranth, Palmer / Pigweed, Palmer plant response rating (0 to 100 scale) [20, 28]: 100
- Blackgrass plant response rating (0-100) [21, 27]: 40
- Blackgrass plant response rating (0 to 100 scale) [21, 28]: 90
- Horseweed plant response rating (0-100) [22, 27]: 30
- Horseweed plant response rating (0 to 100 scale) [22, 28]: 70
- Ragweed plant response rating (0-100) [23, 27]: 20
- Ragweed plant response rating (0 to 100 scale) [23, 28]: 50
- Wheat plant response rating (0-100) [24, 27]: 90
- Wheat plant response rating (0 to 100 scale) [24, 28]: 90
- Oat, Wild plant response rating (0-100) [25, 27]: 90
- Oat, Wild plant response rating (0 to 100 scale) [25, 28]: 90
- Soybean plant response rating (0-100) (soybean (Glycine max) [26]; [27]): 60
- Soybean plant response rating (0 to 100 scale) (soybean (Glycine max) [26]; [28]): 80
